Assay results reported in US8337447B2, “Device for delivery of antifibrotic agents and method” (priority 2006, dated 2012).

Tested on: human conjunctival fibroblasts
Experiment: Polymer cytotoxicity in vitro, toluidine blue staining after 7 days of culture
Format: cell-based
Details: MMC incorporated in salt-free P-HEMA hydrogel (Procedure 2), exponential fit, r2 0.95
Experimental: Measurement of polymer cytotoxicity in vitro: A single 8 mm disk of sterile polymer was affixed to the center of each 60 mm tissue culture dish with clear RTV silicone cement. The silicone cement was sterile as it came from the tube and care was taken during this procedure to maintain the sterility of both the polymer and the tissue culture dish. The cement was allowed to cure for 1-2 hours in a sterile environment, until no odor of acetic acid could be detected. […] The culture medium was removed and the cell layer was gently washed 3 times with 5 ml of phosphate-buffered saline. […] In some cases, the solutions had to be diluted with 2% aqueous sodium dodecyl sulfate to bring the absorbance within the linear range of the spectrophotometer. […]
Once these parameters had been determined, the study was repeated with early passage cultures human conjunctival fibroblasts, the cell type against which these slow release polymers will ultimately be targeted. […]
A single 8 mm disk of polymer was affixed to each culture dish with silicone cement and cells were fixed and stained 7 days after inoculation, as described in Methods. After solubilization of the cell-bound dye, the color (measured as absorbance at 650 nm) was a measure of the number of cells in each dish. […]

SMILES: CO[C@@]12[C@H](COC(N)=O)C3=C(C(=O)C(C)=C(N)C3=O)N1C[C@@H]1N[C@@H]12 [MMC, mitomycin C]
- concentration of MMC that inhibited 50% of cell proliferation (IC50): 0.15 mg/g dried gel
